The values that follow come from US20100137303A1, “NEW COMPOUND 255” (AstraZeneca AB, priority 2008, published 2010).

The subject of one assay is M. tuberculosis. The assay can be described thus: Mycobacteria susceptibility testing, Microplate Alamar Blue Assay, Mtu MIC. The assay is classed as cell-based, Mycobacterium tuberculosis (Mtu). The settings on record: Mycobacterium tuberculosis.
Another assay concerns Eco-tolC. The assay can be described thus: Bacterial susceptibility testing in liquid media, Eco-tolC MIC. The settings on record: Escherichia coli, read-out: Eco-tolC MIC.
The test system of another assay is Spn548. The assay can be described thus: Bacterial susceptibility testing in liquid media, Spn548 MIC. Conditions: Streptococcus pneumoniae, 24 h, read-out: Spn548 Mean MIC.
A further assay has as its target T1, Msm. GyrB (Mycolicibacterium smegmatis, UniProt A0QNE0).
T1 construct: 15 nM Msm; GyrB, 650 μM ATP, and compound in dimethyl sulfoxide
Kind of assay: Msmegmatis GyrB enzyme assay (ATPase, malachite green phosphate detection). The assay is classed as biochemical. Conditions: read-out: Msm_GyrB IC50. How it is done:
Compounds may be tested for inhibition of GyrB ATPase activity using an ammonium molybdate/malachite green-based phosphate detection assay (Lanzetta, P. A., L. J. Alvarez, P. S. Reinach, and O. A. Candia, 1979, 100: 95-97; Innova Biosciences malachite green detection kit). Assays can be performed in multi-well plates in 50 μl reactions containing: 50 mM HEPES buffer pH 7.7, 250 mM potassium glutamate, 200 mM potassium chloride, 2 mM magnesium chloride, 2% glycerol, 1 mM 1,4-Dithio-DL-threitol, 0.005% Brij-35, 15 nM Msm. GyrB, 650 μM ATP, and compound in dimethyl sulfoxide. Reactions can be quenched with 12.5 μl of ammonium molybdate/malachite green detection reagent (Pi color lock gold & accelerator mix; Innova Biosciences), followed by the addition of 5 μl of stabilizer (Innova Biosciences) after 5 min of incubation.

In brackets after ≈: the same amount, converted by molar mass. Bounds are passed on as bounds.

T1 sequence (A0QNE0 whole entry): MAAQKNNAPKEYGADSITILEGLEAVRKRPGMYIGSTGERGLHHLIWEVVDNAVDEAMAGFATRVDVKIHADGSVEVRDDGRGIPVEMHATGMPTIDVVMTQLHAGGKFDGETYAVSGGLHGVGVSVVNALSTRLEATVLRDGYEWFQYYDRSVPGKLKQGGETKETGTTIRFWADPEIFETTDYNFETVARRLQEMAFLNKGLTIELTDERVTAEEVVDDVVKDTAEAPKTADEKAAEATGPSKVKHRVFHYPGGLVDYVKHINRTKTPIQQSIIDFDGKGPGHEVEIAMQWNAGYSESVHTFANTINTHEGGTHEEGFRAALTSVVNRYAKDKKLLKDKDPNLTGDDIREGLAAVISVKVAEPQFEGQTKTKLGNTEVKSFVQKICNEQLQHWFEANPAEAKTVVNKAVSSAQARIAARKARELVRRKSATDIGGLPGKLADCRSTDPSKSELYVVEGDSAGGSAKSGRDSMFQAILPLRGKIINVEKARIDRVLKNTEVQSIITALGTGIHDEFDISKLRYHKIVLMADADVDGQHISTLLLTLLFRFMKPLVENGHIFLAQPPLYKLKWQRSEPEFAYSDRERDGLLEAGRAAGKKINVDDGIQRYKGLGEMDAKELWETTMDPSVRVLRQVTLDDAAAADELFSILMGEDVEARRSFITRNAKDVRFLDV
Text for Eco-tolC: (§1) Compounds may be tested for antimicrobial activity by susceptibility testing in liquid media. Compounds may be dissolved in dimethylsulfoxide and tested in 10 doubling dilutions in the susceptibility assays. The organisms used in the assay may be grown overnight on suitable agar media and then suspended in a liquid medium appropriate for the growth of the organism. The suspension can be a 0.5 McFarland and a further 1 in 10 dilution can be made into the same liquid medium to prepare the final organism suspension in 100 μL. Plates can be incubated under appropriate conditions at 37° C. for 24 hrs prior to reading.
Text for Spn548: as §1

For the compound `CCNC(=O)Nc1nc2cc(-c3cncnc3)c(OCCOC(C)C)nc2s1` [Example 35, 1-ethyl-3-{5-[2-(1-methylethoxy)ethoxy]-6-pyrimidin-5-yl[1,3]thiazolo[5,4-b]pyridin-2-yl}urea], the results for the MIC with M. tuberculosis, with Eco-tolC and in the assay with Spn548 were 0.354 µg/mL (≈ 0.879 µM), 0.25 µg/mL (≈ 0.621 µM) and 0.0625 µg/mL (≈ 0.155 µM), respectively. In addition, the IC50 at Msm. GyrB was 28 nM.
As for `CCNC(=O)Nc1nc2cc(-c3cncnc3)c(OCCC(C)C)nc2s1` [Example 37, 1-ethyl-3-[5-(3-methylbutoxy)-6-pyrimidin-5-yl[1,3]thiazolo[5,4-b]pyridin-2-yl]urea], the MIC in the assay on M. tuberculosis is under 0.25 µg/mL; with Eco-tolC it was 0.25 µg/mL (≈ 0.647 µM); with Spn548 it was 0.0625 µg/mL (≈ 0.162 µM). In addition, the half-inhibitory concentration (IC50) at Msm. GyrB stood at 11.8 nM.
The like results for `CCNC(=O)Nc1nc2cc(-c3cncnc3)c(OCCc3scnc3C)nc2s1` [Example 38, 1-ethyl-3-{5-[2-(4-methyl-1,3-thiazol-5-yl)ethoxy]-6-pyrimidin-5-yl[1,3]thiazolo[5,4-b]pyridin-2-yl}urea] were, in that order, 0.281 µg/mL (≈ 0.636 µM), 0.125 µg/mL (≈ 0.283 µM), 0.0625 µg/mL (≈ 0.142 µM) and under 5.01 nM.
On to `CCNC(=O)Nc1nc2cc(-c3cncnc3)c(OCC(F)(F)F)nc2s1` [Example 39, 1-ethyl-3-[6-pyrimidin-5-yl-5-(2,2,2-trifluoroethoxy)[1,3]thiazolo[5,4-b]pyridin-2-yl]urea], for which the figures for the MIC in the assay with M. tuberculosis, in the assay on Eco-tolC and in the assay on Spn548 were 0.25 µg/mL (≈ 0.628 µM), 0.354 µg/mL (≈ 0.888 µM) and 0.0625 µg/mL (≈ 0.157 µM), respectively. In addition, the 50% inhibitory concentration (IC50) at Msm. GyrB is under 3.87 nM.
For `CCNC(=O)Nc1nc2cc(-c3cccnc3)c(OCCOC(C)C)nc2s1` [Example 41, 1-ethyl-3-{5-[2-(1-methylethoxy)ethoxy]-6-pyridin-3-yl[1,3]thiazolo[5,4-b]pyridin-2-yl}urea] the same measures were 2 µg/mL (≈ 4.98 µM), 5.02 µg/mL (≈ 12.5 µM), 0.0784 µg/mL (≈ 0.195 µM) and 9.1 nM.
For `CCNC(=O)Nc1nc2cc(-c3cncnc3)c(OCC(C)C)nc2s1` [Example 43, 1-ethyl-3-[5-(2-methylpropoxy)-6-pyrimidin-5-yl[1,3]thiazolo[5,4-b]pyridin-2-yl]urea], the MIC was 0.125 µg/mL (≈ 0.336 µM) against M. tuberculosis, 0.582 µg/mL (≈ 1.56 µM) in the assay with Eco-tolC and 0.0727 µg/mL (≈ 0.195 µM) in the assay on Spn548. The IC50 at Msm. GyrB turned out to be 4.39 nM.
For the compound `CCNC(=O)Nc1nc2cc(-c3cncnc3)c(OCCOCC)nc2s1` [Example 46, 1-[5-(2-ethoxyethoxy)-6-pyrimidin-5-yl[1,3]thiazolo[5,4-b]pyridin-2-yl]-3-ethylurea], the MIC came out at 0.125 µg/mL (≈ 0.322 µM) with M. tuberculosis, 0.25 µg/mL (≈ 0.644 µM) with Eco-tolC and 0.0625 µg/mL (≈ 0.161 µM) with Spn548. In addition, the IC50 at Msm. GyrB stood at 20 nM.
The like results for `C=CCOCCOc1nc2sc(NC(=O)NCC)nc2cc1-c1cncnc1` [Example 47, 1-ethyl-3-{5-[2-(prop-2-en-1-yloxy)ethoxy]-6-pyrimidin-5-yl[1,3]thiazolo[5,4-b]pyridin-2-yl}urea] were, in that order, 0.125 µg/mL (≈ 0.312 µM), 0.5 µg/mL (≈ 1.25 µM), 0.0625 µg/mL (≈ 0.156 µM) and 17.1 nM.
Regarding `CCNC(=O)Nc1nc2cc(-c3ccc(F)nc3)c(OCCOC)nc2s1` [Example 48, 1-ethyl-3-[6-(6-fluoropyridin-3-yl)-5-(2-methoxyethoxy)[1,3]thiazolo[5,4-b]pyridin-2-yl]urea], the MIC against M. tuberculosis stood at 0.707 µg/mL (≈ 1.81 µM); in the assay with Eco-tolC it was 0.125 µg/mL (≈ 0.319 µM); in the assay on Spn548 it was 0.0625 µg/mL (≈ 0.16 µM). Besides, the IC50 on Msm. GyrB amounted to 4.51 nM.
As for `CCNC(=O)Nc1nc2cc(-c3cncnc3)c(OCC3CCOCC3)nc2s1` [Example 49, 1-ethyl-3-[6-pyrimidin-5-yl-5-(tetrahydro-2H-pyran-4-ylmethoxy)[1,3]thiazolo[5,4-b]pyridin-2-yl]urea], the MIC in the assay on M. tuberculosis was 0.0625 µg/mL (≈ 0.151 µM); in the assay on Eco-tolC it was 0.125 µg/mL (≈ 0.302 µM); in the assay on Spn548, 0.0625 µg/mL (≈ 0.151 µM). At Msm. GyrB, the IC50 is under 2.54 nM.
Turning to `CCNC(=O)Nc1nc2cc(-c3cncnc3)c(OCc3cscn3)nc2s1` [Example 50, 1-ethyl-3-[6-pyrimidin-5-yl-5-(1,3-thiazol-4-ylmethoxy)[1,3]thiazolo[5,4-b]pyridin-2-yl]urea], the MIC against M. tuberculosis is 0.25 µg/mL (≈ 0.605 µM); in the assay on Eco-tolC, 0.25 µg/mL (≈ 0.605 µM); in the assay with Spn548, 0.0625 µg/mL (≈ 0.151 µM). In addition, the IC50 at Msm. GyrB was under 2.54 nM.
For `CCNC(=O)Nc1nc2cc(-c3cncnc3)c(OCC3CCCO3)nc2s1` (centres unmarked) [Example 51, 1-ethyl-3-[6-pyrimidin-5-yl-5-(tetrahydrofuran-2-ylmethoxy)[1,3]thiazolo[5,4-b]pyridin-2-yl]urea], the MIC stood at 0.25 µg/mL (≈ 0.624 µM) in the assay with M. tuberculosis, 0.125 µg/mL (≈ 0.312 µM) in the assay with Eco-tolC and 0.0625 µg/mL (≈ 0.156 µM) with Spn548. Besides, the IC50 on Msm. GyrB was determined as 4.87 nM.
For `CCNC(=O)Nc1nc2cc(-c3cncnc3)c(NCC3CCCO3)nc2s1` (centres unmarked) [Example 52, 1-ethyl-3-{6-pyrimidin-5-yl-5-[(tetrahydrofuran-2-ylmethyl)amino][1,3]thiazolo[5,4-b]pyridin-2-yl}urea] the same measures were 1 µg/mL (≈ 2.5 µM), 4 µg/mL (≈ 10 µM), 0.125 µg/mL (≈ 0.313 µM) and 7.88 nM.
For the compound `CCNC(=O)Nc1nc2cc(-c3cncc(C(=O)OCC)c3)c(OCC3CCOC3)nc2s1` (centres unmarked) [Example 53, ethyl 5-{2-[(ethylcarbamoyl)amino]-5-(tetrahydrofuran-3-ylmethoxy)[1,3]thiazolo[5,4-b]pyridin-6-yl}pyridine-3-carboxylate], the MIC with M. tuberculosis turned out to be 2.83 µg/mL (≈ 6 µM); with Eco-tolC it was 0.5 µg/mL (≈ 1.06 µM); in the assay with Spn548, 0.0625 µg/mL (≈ 0.133 µM). For the same compound, the IC50 on Msm. GyrB was 62.2 nM.
The like results for `CCNC(=O)Nc1nc2cc(-c3cccc(/C=C/C(=O)O)c3)c(OCC3CCOC3)nc2s1` (centres unmarked) [Example 55, (2E)-3-(3-{2-[(ethylcarbamoyl)amino]-5-(tetrahydrofuran-3-ylmethoxy)[1,3]thiazolo[5,4-b]pyridin-6-yl}phenyl)prop-2-enoic acid] were, in that order, over 8 µg/mL, 2 µg/mL (≈ 4.27 µM), 0.0625 µg/mL (≈ 0.133 µM) and 35.2 nM.
In the case of `CCNC(=O)Nc1nc2cc(-c3cncnc3)c(OC)nc2s1` [Example 56, 1-ethyl-3-(5-methoxy-6-pyrimidin-5-yl[1,3]thiazolo[5,4-b]pyridin-2-yl)urea], the minimum inhibitory concentration (MIC) against M. tuberculosis worked out at 0.707 µg/mL (≈ 2.14 µM); with Eco-tolC, 0.5 µg/mL (≈ 1.51 µM); in the assay on Spn548, 0.0625 µg/mL (≈ 0.189 µM). The IC50 at Msm. GyrB is 21.6 nM.
For `CCNC(=O)Nc1nc2cc(N3CCC(O)C3)c(OCC3CCOC3)nc2s1` (centres unmarked) [Example 58, 1-ethyl-3-(6-(3-hydroxypyrrolidin-1-yl)-5-((tetrahydrofuran-3-yl)methoxy)thiazolo[5,4-b]pyridin-2-yl)urea] the same measures were over 8 µg/mL, over 32 µg/mL, 4 µg/mL (≈ 9.82 µM) and 2110 nM.
Turning to `CCNC(=O)Nc1nc2cc(-c3ccc(F)nc3)c(OCC3CCOCC3)nc2s1` [Example 59, 1-ethyl-3-[6-(6-fluoropyridin-3-yl)-5-(tetrahydro-2H-pyran-4-ylmethoxy)[1,3]thiazolo[5,4-b]pyridin-2-yl]urea], the MIC turned out to be 0.5 µg/mL (≈ 1.16 µM) in the assay on M. tuberculosis, 1 µg/mL (≈ 2.32 µM) with Eco-tolC and 0.125 µg/mL (≈ 0.29 µM) in the assay on Spn548. Moreover, the IC50 at Msm. GyrB was under 4.83 nM.
For `CCNC(=O)Nc1nc2cc(-c3cncc(F)c3)c(OCC3CCOCC3)nc2s1` [Example 60, 1-ethyl-3-[6-(5-fluoropyridin-3-yl)-5-(tetrahydro-2H-pyran-4-ylmethoxy)[1,3]thiazolo[5,4-b]pyridin-2-yl]urea] the same measures were 0.354 µg/mL (≈ 0.819 µM), 1 µg/mL (≈ 2.32 µM), 0.125 µg/mL (≈ 0.29 µM) and under 2.54 nM.
The like results for `CCNC(=O)Nc1nc2cc(-c3cccnc3OC)c(OCC3CCOCC3)nc2s1` [Example 61, 1-ethyl-3-[6-(2-methoxypyridin-3-yl)-5-(tetrahydro-2H-pyran-4-ylmethoxy)[1,3]thiazolo[5,4-b]pyridin-2-yl]urea] were, in that order, over 4 µg/mL, 16 µg/mL (≈ 36.1 µM), 0.25 µg/mL (≈ 0.564 µM) and 4.74 nM.
Consider `CCNC(=O)Nc1nc2cc(-c3c(C)noc3C)c(OCC3CCOCC3)nc2s1` [Example 62, 1-[6-(3,5-dimethylisoxazol-4-yl)-5-(tetrahydro-2H-pyran-4-ylmethoxy)[1,3]thiazolo[5,4-b]pyridin-2-yl]-3-ethylurea], for which the MIC in the assay on M. tuberculosis was over 4 µg/mL; in the assay on Eco-tolC, 64 µg/mL (≈ 148 µM); in the assay with Spn548, 8 µg/mL (≈ 18.5 µM). In addition, the half-inhibitory concentration (IC50) at Msm. GyrB is 727 nM.
The like results for `CCNC(=O)Nc1nc2cc(-c3cncnc3)c(OC[C@H]3CCCO3)nc2s1` [Example 63, 1-ethyl-3-{6-pyrimidin-5-yl-5-[(2R)-tetrahydrofuran-2-ylmethoxy][1,3]thiazolo[5,4-b]pyridin-2-yl}urea] were, in that order, 0.25 µg/mL (≈ 0.624 µM), 1 µg/mL (≈ 2.5 µM), 0.125 µg/mL (≈ 0.312 µM) and 2.6 nM.
As to `CCNC(=O)Nc1nc2cc(-c3cncnc3)c(OC3CCOC3)nc2s1` (centres unmarked) [Example 64, 1-ethyl-3-[6-pyrimidin-5-yl-5-(tetrahydrofuran-3-yloxy)[1,3]thiazolo[5,4-b]pyridin-2-yl]urea], the MIC against M. tuberculosis is 0.125 µg/mL (≈ 0.323 µM); in the assay with Eco-tolC, 0.5 µg/mL (≈ 1.29 µM); in the assay with Spn548, 0.125 µg/mL (≈ 0.323 µM). In addition, the IC50 at Msm. GyrB is under 2.54 nM.
